Experimental data published in publication PMC5663708, “Novel Benzylidene Thiazolidinedione Derivatives as Partial PPARγ Agonists and their Antidiabetic Effects on Type 2 Diabetes” (Scientific Reports, 2017).

Assays:
[1] = tested on: NIH/3T3 mouse embryonic fibroblast cells; assay: XTT cytotoxicity assay on NIH/3T3 cells; conditions: for cell viability compared with Rosiglitazone: especially at 316 and 1000 μM
Protocol: XTT is reduced to soluble formazan by this enzyme and formazan is quantified and directly proportional to the number of viable cells. […] NIH/3T3 cells were seeded at 1 × 10^4 cells into each well of 96-well plates. […] The XTT assay (Xenometrix, Allschwil, Switzerland) was performed according to the manufacturer’s instructions, after 24 h incubation with the compounds. The absorbance was determined after 2 h incubation at 480 nm with a reference wavelength of 680 nm using a microplate reader (BioTek, USA). […] The stock solutions of the compounds were prepared in DMSO and further dilutions were made with fresh culture medium. The final DMSO concentration was under 0.1%. Rosiglitazone and Pioglitazone were used as positive controls. All data were obtained from 3 independent experiments in quadruplicates.

[2] = tested on: STZ-NA-induced diabetic rats; assay: Antidiabetic activity in STZ-NA-induced type 2 diabetic rats; conditions: for HbA1c / blood glucose levels / HDL-C / Hb levels / TC, TG, VLDL-C and LDL-C: 15 days; for blood glucose levels: vs diabetic control rats; for HDL-C / Hb levels / TC, TG, VLDL-C and LDL-C: vs disease control (STZ + NA)
Protocol: The test dose was fixed based on the predicted LD50 value. […] Diabetic rats were orally treated with the test compounds at a dose of 36 mg/kg body weight for a period of 15 days. Fasting blood glucose of control, diabetic-untreated and diabetic-treated rats were tested on Days 1, 3, 7 and 15 of the treatment period (Fig. 6A).
Male Wistar strain rats weighing about 160–200 g were used for animal studies. […] Rats were provided with rodent diet and water ad libitum. […] The animals were allowed to drink 5% glucose solution overnight to prevent STZ-NA-induced hypoglycemia[82],[83]. The rats were considered as diabetic if their blood glucose levels were above 250 mg/dL on the 3rd day after STZ-NA injection. The rats were divided into four groups of six animals in each group. Control animals received normal saline (Group I). Diabetic rats received STZ-NA injection (Group II). […] The blood glucose level of each group was checked at 1, 3, 7 and 15 Day by withdrawing blood from tail vein of the animal using glucose meter (ACCu-Chek active, Roche, Diagnostics USA).
After pharmacological screening for antidiabetic activity, the animals were subjected to overnight fasting and blood was collected from retro-orbital region under light anaesthesia for performing various biochemical experiments. All the biochemical experiments were performed using commercially available kits. Total Hb was estimated by cyanomethaemoglobin method, while HbA1c was estimated from whole blood using commercially available kits following the manufacturer guidelines (ERBA Diagnostics Inc, Accurex Biomedical Pvt. Ltd., Coral clinical systems, India). TG concentration was determined by GPO-POD enzymatic-colorimetric method. TC level was measured by the end point, CHOD-POD colorimetric methods. HDL-C was assayed by the method reported earlier. VLDL-C and LDL-C in plasma were calculated by the Friedewald formula: VLDL-C = TG/5; LDL-C = TC-(HDL-C + VLDL-C)[88]. Levels of serum urea, uric acid, and creatinine were measured using commercially available kits[89].
Rats were sacrificed under light anesthesia using diethylether at the end of the pharmacological and biochemical studies. […] Then, the tissue was sliced out into sections of 5 µm thickness by a rotator microtome and stained with hematoxylin-eosin. Obtained sections were examined by a Leica DME microscope, and representative photomicrographs were taken by a 7.1 megapixel Canon Power Shot S70 digital camera.

[3] = Human liver microsomal stability; type: in vitro ADME; conditions: 37.5 °C, LM conc 0.4 mg/mL; for half-life: read-out: T1/2,int
Protocol: The oral bioavailability of compounds in terms of Caco-2 and MDCK-II permeability and the P-glycoprotein (P-gp) efflux ratio were assessed. The in vitro intrinsic half-life (T1/2,int) and the apparent intrinsic clearance (CLint,app) of compounds were also measured after incubation with human liver microsomes at 37.5 °C[65]. […] Quantification was done by LC-MS/MS. P-gp substrate activity was assessed by the efflux ratio (the ratio of Papp in the B-to-A direction over that in the A-to-B direction). […] P-gp is an ATP-dependent transporter on the apical plasma membrane of enterocytes that functions to limit the entry of drugs into the cell.
Highly cleared compounds in vitro are likely to be rapidly cleared in vivo resulting in a short duration of action.

[4] = target: T1, PPARγ (Homo sapiens, UniProt P37231); assay: SPR-based Biacore binding assay on immobilized PPARγ; conditions: injected 0.5 to 10 µM
T1 sequence (P37231 1-505): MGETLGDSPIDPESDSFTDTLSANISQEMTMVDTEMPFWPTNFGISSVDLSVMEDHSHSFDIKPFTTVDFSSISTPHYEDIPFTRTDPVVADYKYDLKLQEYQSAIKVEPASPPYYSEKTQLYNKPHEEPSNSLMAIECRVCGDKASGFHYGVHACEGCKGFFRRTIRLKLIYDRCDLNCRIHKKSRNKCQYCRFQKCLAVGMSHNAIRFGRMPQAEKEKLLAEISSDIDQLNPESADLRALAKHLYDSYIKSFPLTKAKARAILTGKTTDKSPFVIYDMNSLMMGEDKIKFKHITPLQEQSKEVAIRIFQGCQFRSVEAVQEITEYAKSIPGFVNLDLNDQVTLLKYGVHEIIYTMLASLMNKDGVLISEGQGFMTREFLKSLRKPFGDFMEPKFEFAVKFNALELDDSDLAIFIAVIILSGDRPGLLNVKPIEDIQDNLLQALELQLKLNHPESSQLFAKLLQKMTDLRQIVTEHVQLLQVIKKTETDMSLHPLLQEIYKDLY
Protocol: […]. SPR analyses were carried out on a BIACORE 3000 instrument (GE-Healthcare). A PPARγ, surface was generated using a research-grade CM5 sensor chips (GE Healthcare). The protein (100 µg/ml in 10 mM CH3COONa, pH 5.0) was immobilized using a standard amine-coupling protocol, to obtain densities of 4 kRU. Testing compounds were dissolved in 100% DMSO to obtain 10 mM solutions, and then diluted in PBS containing variable amounts of DMSO, achieving a final DMSO concentration of 0.1%. For each molecule a five-point concentration series (0.5 µM, 1 µM, 2,5 µM, 5 µM and 10 µM) was set up. SPR experiments and data elaboration were carried out as reported elsewhere.

[5] = 36 mg/kg, light microscopy, hematoxylin-eosin

Compound	IC50 ([1]; Mus musculus, NIH3T3, 24 h) [µM]	cell viability compared with Rosiglitazone ([1]; NIH/3T3 cells)	HbA1c ([2]; 36 mg/kg oral)	blood glucose levels ([2]; 36 mg/kg oral)	HDL-C ([2]; 36 mg/kg oral)	Hb levels ([2]; 36 mg/kg oral)	TC, TG, VLDL-C and LDL-C ([2]; 36 mg/kg oral)	histological changes of pancreas (islets, β-cells) [2, 5]	half-life ([3]; human liver microsomes) [min]	Kd [4] [µM]	IC50 ([1]; NIH/3T3 cells, XTT, 24 h incubation) [µM]	liver histopathology [2, 5]	CLint,app ([3]; human liver microsomes) [µL/min/mg]	T1/2,int ([3]; human liver microsomes) [min]	blood glucose lowering activity compared with standard ([2]; 36 mg/kg oral, data for 15th Day)	microsomal CLint ([3]; human, liver microsomes, read-out: CLint,app) [µL/min/mg]
CCN(CC)C(=O)CN1C(=O)S/C(=C\c2ccccc2)C1=O [1i]	> 1000	significantly higher viability than Rosiglitazone	significantly prevented the increase	significantly reduced	increase	significant increase	significant decrease	restored to near normal	92.5	35.7 ± 2.6						
CCCCNC(=O)CN1C(=O)S/C(=C\c2ccccc2)C1=O [1a]			significantly prevented the increase	significantly reduced	increase	significant increase	significant decrease	restored to near normal		38.3 ± 1.8	> 1000	no hepatic abnormalities	169.81	10.20		
CCCCNC(=O)CN1C(=O)S/C(=C\c2ccc(Cl)cc2)C1=O [3a]	966 ± 10	significantly higher viability than Rosiglitazone	significantly prevented the increase	significantly reduced	increase	significant increase	significant decrease	restored to near normal	53.3	32 ± 1.5					equivalent to the standard drug Pioglitazone	32.5
